Here are results for one compound from patent US5416090A, “Method of treating inflammation” (priority 1992, dated 1995).

Like-named read-outs stand apart in the source and are kept apart here.

For experiment [1], the system named is lipoidal amine induced arthritis. Briefly: Lipoidal amine induced polyarthritis (hind paw volume and weight). Format: in vivo, rat (Lewis). The note with it: for minimal effective dose: Rattus norvegicus. As to the method:
Lipoidal amine induced polyarthritis is an animal arthritis model originally described by Chang, Y., et al. in Arthritis and Rheumatism 23:62-71 (1980). The lipoidal amine induced polyarthritis results from injection of N,N-dioctadecyl-N^1,N-bis(2-hydroxyethyl) propanediamine (7.5 mg/kg Lewis rat (220-225 g)), which is suspended in oil, intradermally at the base of the tail.

For experiment [2], the system named is delayed type hypersensitivity (picryl chloride induced foot pad swelling). Briefly: Murine delayed type hypersensitivity (DTH) response, picryl chloride. It is filed as in vivo, mouse (Balb/c). As to the method: The activity of ergoline compounds was also evaluated in a murine delayed-type hypersensitivity (DTH) assay. The DTH assay was performed in substantial accordance with the method set forth in Example 1. Briefly, mice were sensitized by topical administration of picryl chloride on day 1 of the assay. On day 4 paw size was determined and recorded and the paw was then challenged with picryl chloride. The challenged paw was remeasured on day 5 to quantitate the DTH response via the increase in paw size.
(§1) Male Balb/c mice (Charles River) weighing 20 to 25 g were used in all DTH studies. When adrenalectomized studies were carried out, sham surgery and adrenalectomized mice were obtained from the vendor. Animals were maintained on a 12:12 hour light:dark cycle. Mice were allowed ad lib access for food (Purina lab chow) and water (normal saline for adrenalectomized animals).
(§2) A DTH response was assessed by measuring the degree of rear foot pad swelling induced by picryl chloride. On day 0, mice were sensitized with 100 μl of 5% picryl chloride (in ethanol), which was applied to a shaved abdomen. Negative control groups were shaved but not sensitized. On day 3, mice were anesthetized with methoxyflurane, and the baseline rear foot pad thickness was measured with a micrometer (Mitutoyo) in μ, and was recorded in duplicate. Fifty μl of picryl chloride was then applied to each pad with a pipet (Rainen) while the animal was unconscious. The negative controls also received picryl chloride at this point to control for primary irritancy. Twenty-four hours later, the mice were sacrificed by CO2 asphyxiation and each rear foot pad was again measured in duplicate, and any evidence of foot pad swelling was calculated. The mean rear foot swelling change of both pads for each animal from days 3 to 4 was used as the index of immune function in the DTH assay.
(§3) Unless otherwise stated all animals were given four subcutaneous doses of test compound just prior to picryl chloride sensitization on day 0, on day 1 and day 2, and just prior to picryl chloride challenge on day 3. In a few experiments, compounds were administered via oral or intraperitoneal routes. All drugs were delivered as suspensions in 1% carboxy-methylcellulose (also contained 0.8% NaCl, 1% polysorbate-80, 1.4% benzyl alcohol). Carboxymethyl-cellulose (1%) was used in control injections.

For a further experiment, the system named is serum prolactin. Briefly: Serum prolactin levels in mice, time course. It is filed as in vivo, mouse (Balb/C). On the procedure: A further mechanistic study wherein rat serum prolactin levels were quantitated 1 hour post-treatment with varying doses of D-1-isopropyl-6-n-propyl-8β-methylthiomethyl ergoline is summarized in FIG. 11. […] A time course/dose response study of D-1-isopropyl-6-n-propyl-8β-methylthio-methyl ergoline effects on murine serum prolactin levels is presented in FIG. 12. […] There is however a disparity between the suppression of prolactin and anti-inflammatory activities of the ergolines with regard to the dose response profiles. Serum prolactin levels are much more sensitive to D-1-isopropyl-6-n-propyl-8β-methylthiomethyl ergoline (maximal suppression ~≤0.1 mg/kg) than are the anti-inflammatory effects 3-10 mg/kg, See FIG. 5).
Both Balb/C mice (male, approximately 20 g, Charles Rivers) and Lewis rats (male, approximately 200 g, Charles River or Harlan Sprague Dawley) were used in neuroendocrine studies. Animals were maintained on a 12:12 hour light:dark cycle and were allowed ad lib access for food (Purina lab chow) and water. Experimental groups consisted of 6 to 8 animals.
After dosing with test compounds, animals were sacrificed by decapitation at 1, 3, 8 or 24 hour intervals. […] Serum prolactin was determined by radioimmunoassay. Serum corticosterone levels were determined with a kit designed for such determinations and obtained from ICN.

For experiment [3], the system named is dopamine receptor (DTH response). Briefly: Reversal of DTH inhibition by dopamine receptor antagonists. Format: in vivo, mouse. The following applies: FIG. 9 Panels B, C legend; pretreated with domperidone or sulpiride. As to the method: as §1, §2, §3
Experiment [4] concerns graft versus host response (splenomegaly). It is filed as in vivo, mouse (B6C3F1). The note with it: FIG. 13, 10 daily doses.
In experiment [5] the test system is 5-HT induced paw swelling. Briefly: Serotonin (5-HT) induced acute paw inflammation. It is filed as in vivo, rat (Lewis). As to the method: In one such model, the acute paw inflammation model, rats were treated with test compounds one hour prior to plantar injection of a 50 μl volume of a phlogistic. Animals were sacrificed and paw weights were determined at a prescribed time interval following the plantar injections. When 1% carrageenan was used as the phlogistic, the time interval between injection and sacrifice was 3 hours. When serotonin (5-hydroxytryptamine (5-HT)) was used, as the phlogistic agent the time interval was one hour. When substance P was used, the time interval was 30 minutes. The acute paw inflammation model is described in more detail in Example 3.
Male Lewis rats (Charles River or Harlan Sprague Dawley) weighing 180 to 250 g were used in all acute inflammatory studies. Animals were maintained on a 12:12 hour light:dark cycle and were allowed ad lib access for food (Purina lab chow) and water. Experimental groups consisted of 5 or 6 rats.
Acute paw swelling was induced by the intraplantar injection of phlogistic agents into the left hind paw, with the uninjected right hind paw serving as the comparative control. One hour after dosing with test compound, 50 μl of serotonin (Sigma; 0.005 to 0.2 mg/ml in normal saline) or substance P (Sigma; 0.01 or 0.05 mg/ml in 10% thiorphan in normal saline) or carrageenan (Marine Colloidal or Sigma Type IV; 1% in normal saline) were injected under the skin of the left hind paw, while the animal was restrained in a plastic cone. Negative controls were given 50 μl intradermal injections of normal saline (serotonin or carrageenan assays) or 10% thiorphan (substance P assays) into the left hind paw. One hour following injection of serotonin, or 30 minutes following injection of substance P, or 180 minutes following injection of carrageenan, the animals were sacrificed by CO2 asphyxiation. The right and left hind paws were cut just proximal to the tibiotarsal joint and weighed. The difference in weight between an individual animal's left and right paws were used as an indicator of tissue swelling.
As indicated above, test compounds are administered as a one hour pretreatment. In one series of experiments, 24 hour and 48 hour drug pretreatment periods were used. Test compounds were dosed intraperitoneally as a suspension in 1% carboxymethylcellulose.

As to `CCCN1C[C@H](CSC)C[C@@H]2c3cccc4c3c(cn4C(C)C)C[C@H]21` [Compound 1, D-1-isopropyl-6-n-propyl-8β-methylthiomethyl ergoline], the “effect on increase in hind paw volume and weight” value in experiment [1] (FIG. 1) is “Inhibitory effect”. The minimal effective dose in experiment [1] (read-out: dosage giving statistically significant decrease in paw volume, FIG. 1 Panel A) was ≥ 0.7 mg/kg; in experiment [1] (read-out: dosage giving statistically significant decrease in paw weight, FIG. 1 Panel B), ≥ 0.7 mg/kg; in experiment [5] (Rattus norvegicus, ip, read-out: lowest stated dosage with a significant reduction in paw swelling), 0.1 mg/kg. In addition, the “reduction of paw swelling in DTH” value in experiment [2] (FIG. 4 Panel A) is listed as “efficacy”. Also, the “reduction of DTH paw swelling, 4 day vs two day treatment” value in experiment [2] (FIG. 4 Panel A, 4 days vs two day treatment schedule) is “superior efficacy”. Besides, the “dose for anti-inflammatory effects” value in experiment [2] (FIG. 5) fell in the range of 3 to 10 mg/kg. Also, the “duration of effect on serum prolactin” value in the experiment on serum prolactin (FIG. 12, single injection) is listed as “particularly long lasting effects”. For the same compound, the ED (maximal) with serum prolactin (Mus musculus, compared with anti-inflammatory doses, read-out: dose for maximal suppression of serum prolactin) is ≤ 0.1 mg/kg. Besides, in experiment [3], the “reversal of DTH inhibition by antagonist pretreatment” value is given as “reversal of inhibition of the DTH”. Also, the “immunosuppressive activity / effect on GVH splenomegaly” value in experiment [4] (listed as D-1-isopropyl-6-n-propyl-8β-methyl-thiomethyl ergoline) was “unaffected”; in experiment [4] (listed as D-1-isopropyl-6-n-propyl-8β-methylthiomethyl ergoline), “no immunosuppressive activity”; in experiment [4] (listed as compound 1) it was “Lack of effect”. For the same compound, the “reduction in paw swelling” value in experiment [5] (3 mg/kg dosed 24 hours prior to phlogistic challenge) and in experiment [5] (3 mg/kg dosed 48 hours prior to phlogistic challenge) was “significant reduction in paw swelling” each time. The “effect on 5-HT induced paw swelling” value in experiment [5] (FIG. 2) is listed as “Inhibitory effect”. Also, the “duration of anti-inflammatory effect” value in experiment [5] (FIG. 3) is recorded as “longlasting”. Besides, in experiment [5] (FIG. 3, serotonin 0.2 mg/kg, 1, 24 and 48 hour following a single injection), the “inhibition of serotonin induced paw swelling” value is “Inhibition”.
